Data: PMC9783881, “Synthesis and Preclinical Evaluation of Small-Molecule Prostate-Specific Membrane Antigen-Targeted Abiraterone Conjugate” (Molecules, 2022)
Entries after “also recorded” stand apart in the source; their conditions may differ.

What was measured:
cytochrome P450 2C19 = target: T1, cytochrome P450 2C19 (Homo sapiens, UniProt P33261); test: Cytochrome inhibition in human liver microsomes, 2C19; assay type: in vitro ADME; conditions: substrate Mephenytoin, read-out: IC50, 2C19 (PSMA-Abi)
T1 construct: isoenzyme activity in human liver microsomes using conventional sample substrates and HPLC-MS/MS detection; from tissue; host or cells: human liver microsomes
T1 sequence (P33261 whole entry): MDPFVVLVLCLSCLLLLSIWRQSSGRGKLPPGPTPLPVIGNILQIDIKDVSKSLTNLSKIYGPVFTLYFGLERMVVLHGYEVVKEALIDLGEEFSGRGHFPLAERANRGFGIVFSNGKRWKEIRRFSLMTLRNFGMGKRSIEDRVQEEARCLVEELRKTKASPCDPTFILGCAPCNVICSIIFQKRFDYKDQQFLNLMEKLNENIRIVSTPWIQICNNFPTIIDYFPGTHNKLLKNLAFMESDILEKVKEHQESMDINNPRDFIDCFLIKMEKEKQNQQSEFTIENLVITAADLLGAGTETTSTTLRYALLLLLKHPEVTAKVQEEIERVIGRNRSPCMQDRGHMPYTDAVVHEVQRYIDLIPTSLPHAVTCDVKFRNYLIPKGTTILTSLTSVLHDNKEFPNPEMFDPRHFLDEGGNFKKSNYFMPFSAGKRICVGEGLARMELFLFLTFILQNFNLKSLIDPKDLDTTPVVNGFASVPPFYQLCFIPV
Description: To assess the effect of drugs on liver cytochrome activity in drug development, test systems with recombinant enzymes and fluorescent substrates as well as microsomes with metabolic substrates and HPLC-MS/MS analysis were used. The present study aimed to investigate the effect of targeted delivery drugs specific to malignant prostate cells on cytochrome P450 (CYP450) isoenzyme activity in human liver microsomes using conventional sample substrates and HPLC-MS/MS detection. Detailed methodological parameters are described in the Supplementary Material.

22Rv1 cells = test: Cell cycle analysis; assay type: cell-based, human
Method: Cell cycle was analyzed in 22Rv1 cells fixed in 70% ethanol with Muse® cell cycle kit. The fixation lasted overnight at −20 °C. Then, cells were collected by centrifugation at 4000 rpm for 10 min and washed with PBS. The cells were resuspended with Muse® Cell Cycle reagent and incubated for 30 min at room temperature in the dark; then, they were counted.

Pharmacokinetics in rats = assay type: in vivo
Method: The pharmacokinetic parameters were studied for healthy, outbred, adult, male, albino rats (Wistar) about 3 months old weighing 190–210 g. The experiment included 3 rats for preparation. The formulation of conjugate PSMA-Abi was the same as for the acute toxicity evaluation. Administration dose was 1000 mg/kg.
Blood samples were taken from the tail vein of rats in a volume of 0.2 mL in polyethylene micro-tubes with a capillary up to 0.5 mL by trimming the tip of the tail. K2EDTA was used as an anticoagulant. During the study, a total of 48 blood samples from 3 animals (16 samples from each animal) were selected for PSMA-Abi.
Immediately after taking a blood sample, the tube was carefully inverted several times to mix the contents (anticoagulant). The plasma was then separated by centrifugation at 1500× g for 10 min at a temperature of +4 °C. Centrifugation was performed no later than 15 min after sampling each blood sample. The studied conjugate PSMA-Abi was determined in the blood plasma samples of rats and rabbits by high-performance liquid chromatography (Agilent 1200) with tandem mass spectrometric detection (QTrap 4500 tandem mass spectrometer) with preliminary isolation of the analyte from the biomaterial. Detailed method parameters are described in Table S6.

Acute toxicity in mice = assay type: in vivo
Method: White, outbred male mice (ICR) about 2 months old weighing 19–21 g were used. Conjugate PSMA-Abi (2000 mg/kg) was formulated with 1% starch gel solution. The mixture was administrated intragastrically in an amount not exceeding 0.5 mL, and in portions if necessary. The control group was administered 1% starch gel solution. Animals were kept under controlled environmental conditions: air temperature 20–26 °C and relative humidity 30–70%. Lighting in the rooms was artificial (a cycle of 12 h of light, 12 h of darkness). Before the start of the study, animals were divided into groups of 10 animals per group. The distribution was made such that the average masses of groups of animals of one species differed by no more than 10%. Before the experiment concerning the determination of acute toxicity, the animals were deprived of food and water (mice for 2 h) and then weighed. The duration of observation of laboratory animals was 14 days. During this period, visible signs of intoxication were evaluated. Dose selection was carried out based on 22Rv1 xenograft experiments with the maximum effective dose for mice of 500 mg/kg.

22Rv1 = test: Single cell ROS measurement with Pt-nanoelectrodes, 22Rv1; assay type: cell-based, human; conditions: 22Rv1, 1 h incubation, IC50 concentration
Method: Commercially available, disk-shaped carbon nanoelectrodes isolated in quartz (ICAPPIC Limited, London, UK) with diameters of 60–100 nm were used to prepare Pt nanoelectrodes for the amperometric detection of intracellular ROS level. Preparation of Pt-nanoelectrodes has been described in detail previously.
Briefly, a disk-shaped carbon nanoelectrode was etched in a 0.1 M NaOH, 10 mM KCl solution for 20–40 cycles of 10 seconds (from 0 to +2200 mV) to create nanocavities. Electrochemical deposition of platinum in nanocavities was achieved by cycling from 0 to −800 mV with a scan rate of 200 mV s^−1 for 8 to 10 cycles in 2 mM H2PtCl6 solution in 0.1 M hydrochloric acid. […]
The setup for amperometric measurements included a PC that was connected to a system consisting of an ADC–DAC converter Axon Digidata 1550B (Axon Instruments, Burlingame, CA, USA) and patch-clamp amplifier MultiClamp 700B (Axon Instruments, USA). […] The potential difference between the Pt-nanoelectrode and the reference electrode was recorded with the pClamp 11 software suite (Molecular Devices, Silicon Valley, CA, USA) and processed with Origin 2018 software.
PC-3 (2.0 × 10^5)/22Rv1 (3.5 × 10^5) cells were seeded in 35 mm Petri dishes, incubated under the conditions described above, and then treated for 24 h. […] Untreated cells were used as a control, which was evaluated at the beginning and at the end of the experiment. […]

[1] = single oral administration, mean
[2] = single peroral 1000 mg/kg, Mean ± SD
[3] = mice males, 2000 mg/kg single, M±SD

**Q.** Which IC50 (cytochrome P450 2C19) does the source give for `C[C@]12CC[C@H](OC(=O)CCCc3cn(CCCNC(=O)[C@H](Cc4ccc(O)cc4)NC(=O)[C@H](Cc4ccccc4)NC(=O)CCC(=O)NCCCCCC(=O)N(CCCC[C@H](NC(=O)N[C@@H](CCC(=O)O)C(=O)O)C(=O)O)Cc4cccc(Cl)c4)nn3)CC1=CC[C@@H]1[C@@H]2CC[C@]2(C)C(c3cccnc3)=CC[C@@H]12` [PSMA-Abi] here?
**A.** > 25 µM

**Q.** And the “effect on cell cycle” value (22Rv1 cells; 22Rv1, against a control group)?
**A.** not statistically significant against a control group

**Q.** And the “level of G0/G1 cells” value (22Rv1 cells; 22Rv1, with increasing concentration)?
**A.** practically unchanged

**Q.** What about the “maximum plasma concentrations, range over animals” value (Pharmacokinetics in rats; oral 1000 mg/kg) of the same molecule?
**A.** 190 to 537 ng/mL

**Q.** What about the “time plasma concentrations were detected after administration” value (Pharmacokinetics in rats; oral 1000 mg/kg) of the same molecule?
**A.** at least 72 h

**Q.** And the “time to maximum plasma concentration, range over animals” value (Pharmacokinetics in rats; oral 1000 mg/kg)?
**A.** 1.5 to 8 h

**Q.** What about the “AUC0–t” value (Pharmacokinetics in rats; [1]) of the same molecule?
**A.** 3791 ± 875 ng·h/mL

**Q.** What about the “AUC0–∞” value (Pharmacokinetics in rats; [1]) of the same molecule?
**A.** 4623 ± 1260 ng·h/mL

**Q.** What about the Cmax (Pharmacokinetics in rats; single peroral 1000 mg/kg, 1% starch suspension, Mean ± SD) of the same molecule?
**A.** 318 ± 190 ng/mL

**Q.** What about the “AUC0–t” value (Pharmacokinetics in rats; [2]) of the same molecule?
**A.** 3791 ± 875 ng·h/mL

**Q.** What about the “AUC0–∞” value (Pharmacokinetics in rats; [2]) of the same molecule?
**A.** 4623 ± 1260 ng·h/mL

**Q.** What about the “AUCt–∞/AUC0–∞” value (Pharmacokinetics in rats; [2]) of the same molecule?
**A.** 21 ± 5%

**Q.** And the Kel (Pharmacokinetics in rats; [2])?
**A.** 0.023 ± 0.006 h⁻¹

**Q.** And the “MRT0–t” value (Pharmacokinetics in rats; [2])?
**A.** 27.2 ± 1.7 h

**Q.** What about the “T1/2 (elimination half-life)” value (Pharmacokinetics in rats; [2]) of the same molecule?
**A.** 31.3 ± 8.7 h

**Q.** What about the Tmax (Pharmacokinetics in rats; single peroral 1000 mg/kg, mean) of the same molecule?
**A.** 3.8 h

**Q.** What about the “weight dynamic, % of starting weight, 5 days” value (Acute toxicity in mice; [3]) of the same molecule?
**A.** 17.5±7.4%

**Q.** And the “weight dynamic, % of starting weight, 10 days” value (Acute toxicity in mice; [3])?
**A.** 30.9±11.5%

**Q.** What about the “weight dynamic, % of starting weight, 14 days” value (Acute toxicity in mice; [3]) of the same molecule?
**A.** 30.7±17.9%

**Q.** What about the “growth rate (body weight), % of initial weight” value (Acute toxicity in mice; mice, 2000 mg/kg single dose, by the 14th day, control 50) of the same molecule?
**A.** 30%

**Q.** What about the animal death (Acute toxicity in mice; mice, 2000 mg/kg single dose, intragastric, 14 days observation, 2000 mg/kg) of the same molecule?
**A.** No animal death was observed; also recorded: without animal death

**Q.** And the tolerable dose (Acute toxicity in mice; mice, single dose)?
**A.** 2000 mg/kg

**Q.** And the “ROS (hydrogen peroxide) level in single cells” value (22Rv1)?
**A.** significant increase in comparison with both the control and AbiAc groups
